Data set [1] concerns herpes simplex virus type I. In words: animal or person. The settings on record: thermally injured mice, HSV type I 3×10^3 PFU/kg i.p., oral 1 μg/kg of aconite-alkaloid; for responders at 0.001 mg/kg: Mus musculus, 600 h, read-out: survival rate; for average survival days: 25 days. In kind it is in vivo, BALB/c male mice.
The nature of data set [2]: Acute toxicity of aconite-alkaloids. The settings on record: in vivo.
The test system of data set [3] is suppressor cell activities induced in thermally injured mice. It counts as cell-based, BALB/c mice. The settings on record: 1 μg/kg of aconite-alkaloid given twice to contrasuppressor cell donors; normal model 12413 ± 1438, susceptibility model 2650 ± 70.
The subject of data set [4] is AIDS virus (LP-BM5 virus). Kind of data set: Survival of opportunistic infection model mice infected with AIDS virus (LP-BM5 virus) (Experimental Example 3). In kind it is in vivo. The settings on record: 1 μg/kg oral, observed for 150 days, saline 0%. As for the experimental part:
Mice as opportunistic infection model inoculated intraperioneally with 0.1 ml/mouse of a culture supernatant of AIDS virus (LP-BM5 virus) infected SC-1 cells were orally given benzoylmesaconine or physiological saline.

Another data set relates to cytomegalovirus (CMV). Kind of data set: Survival of thermally injured mice infected with cytomegalovirus (Experimental Example 7). The settings on record: CMV 2.5×10^3 PFU/mouse i.v., 10 μg/kg/day oral, 25 days.
The next data set has as its system CMV. The settings on record: SCID mice, 10 μg/kg/day oral.
Data set [5] deals with suppressor cell activities. Kind of data set: Contrasuppressor cell activities in MLTR, suppressor cells from LP-BM5 virus infected mice. It counts as cell-based. The settings on record: 1 μg/kg, suppressor cells from mice 110 days after infection with LP-BM5 virus. How it is done:
Contrasuppressor cell activities, i.e. cells activities suppressing the suppressor cell activities induced in thermally injured mice were determined in mixed lymphocyte tumor cell reaction (MLTR) by mixing and incubating the following cells for 5 days in a 96-wells round-bottom microplate.
Reaction cells: Spleen mononuclear cells (referred to hereinafter as SMNCs) (5.0×10^4 cells/well) obtained from normal BALB/c mice.
Stimulator cells: EL-4 tumor cells (5.0×10^4 cells/well).
Suppressor cells: SMNCs (2.5×10^5 cells/well) obtained from the model of increased susceptibility to infections. […]
Before incubation, the cells except for the reaction cells were treated with 40 μg/ml of mitomycin C solution at 37° C. for 30 minutes. Twenty-four hours before the conclusion of 3-days incubation, 0.5 μCi/well of ^3 H-thymidine was added to the well, and the amount of ^3 H-thymidine incorporated into the reaction cells was determined in a liquid scintillation counter to evaluate the contrasuppressor cell activities induced against the suppressor cell activities by administration of the active ingredient of the present agent.
The contrasuppressor cell activities induced against suppressor cell activities by administration of benzoylmesaconine was evaluated in the same manner as in "(3) Measurement of contrasuppressor cell activities" in Experimental Example 1. […]

The conditions of data set [6]: J. Pharm. Dyu.7, 836-848 (1984); cited from earlier work.
Data set [7] relates to herpes simplex virus type I. In words: Survival of mice infected with a lethal dose of herpes simplex virus type I (Experimental Example 2). In kind it is in vivo, BALB/c mice. To be noted: HSV type I 3×10^5 PFU/kg i.p., 10 μg/kg oral, before and after infection. How it is done: In this example, 7-week-old BALB/c mice were infected intraperioneally with a lethal dose (3×10^5 PFU/kg) of herpes simplex virus type I. Two days before the infection, 1 day and 4 days after the infection, the active ingredient of the present agent (10 μg/kg) or physiological saline (control) was orally administered through a stomach probe into the mice. Twenty-five days after the infection, their survival rate was determined to evaluate the action of the active ingredient. In this experiment, the experimental mice were given the active ingredient of the present agent before and after infection with the virus to evaluate its action mainly on the prevention and treatment of the virus infection.

The mark [8] stands for this setting: twenty-five days after infection.

On to `CCN1CC2(COC)C(O)CC(OC)C34C5CC6(O)C(OC)C(O)C(O)(C5C6OC(=O)c5ccc(OC)cc5)C(C(OC)C23)C14` (centres unmarked) [14-anisoylaconine], for which the responders at 0.001 mg/kg in [1] (setting [8]) stood at 80%. The same compound yielded an average survival days in data set [1] of over 22.5 days. Further, in data set [2], the LD50 lay in the range of 20 to 500 mg/kg. The “incorporation of ^3 H-thymidine” value in data set [3] is recorded as 12720 ± 1578 CPM ± SE.
On the same counts, the results for `CCN1CC2(COC)C(O)CC(OC)C34C5CC6(O)C(OC)C(=O)C(C5C6OC(=O)c5ccccc5)C(C(OC)C23)C14` (stereo not drawn) [16-epi-pyraconitine] are 70%, over 21.2 days, 20 to 500 mg/kg and 15654 ± 1209 CPM ± SE.
On the same counts, the results for `COCC12CN(C)C3C4C(OC)C1C3(C(OC)CC2O)C1CC2(O)C(OC)C(=O)C4C1C2OC(=O)c1ccccc1` (stereo not drawn) [16-epi-pyromesaconitine] are 80%, over 22.4 days, 20 to 500 mg/kg and 16891 ± 2232 CPM ± SE.
The like results for `C=C1C2CCC3(C4CC5C6(C)CCCC5(C(O4)N(CCO)C6)C3C2)C1O` (centres unmarked) [ajaconine] were, in that order, 80%, over 22.3 days, 20 to 500 mg/kg and 17655 ± 1879 CPM ± SE.
Take `CCN1CC2(COC)C(O)CC(OC)C34C5CC6(O)C(OC)C(O)C(O)(C5C6OC(=O)c5ccccc5)C(C(OC)C23)C14` (centres unmarked) [benzoylaconine]: in [1] (setting [8]), the responders at 0.001 mg/kg is 80%. The compound also had an average survival days in [1] of over 22.5 days. This compound came in with an LD50 in data set [2] of 20 to 500 mg/kg. Besides, the “incorporation of ^3 H-thymidine” value in [3] is 16140 ± 1738 CPM ± SE.
On to `COCC12CCC(OC)C34C5CC6(O)C(OC)C(O)C(O)(C5C6OC(=O)c5ccccc5)C(C(OC)C13)C4N(C)C2` (centres unmarked) [benzoylhypaconine], for which the responders at 0.001 mg/kg in [1] (setting [8]) turned out to be 80%. Moreover, the average survival days in [1] is listed as over 22.4 days. The LD50 in data set [2] was 20 to 500 mg/kg. Also, the “incorporation of ^3 H-thymidine” value in [3] is listed as 21319 ± 903 CPM ± SE.
Turning to `COCC12CN(C)C3C4C(OC)C1C3(C(OC)CC2O)C1CC2(O)C(OC)C(O)C4(O)C1C2OC(=O)c1ccccc1` (centres unmarked) [benzoylmesaconine], the survival rate turned out to be 80% in [4]; 100% with cytomegalovirus (CMV) (saline 0%); 100% in the data set on CMV (CMV 2.5×10^3 PFU/mouse, saline 0%). Also, the average survival days in the data set with cytomegalovirus (CMV) (saline 12.4) is over 22.1 days; in data set [1], over 21.5 days. Also, the responders at 0.001 mg/kg in data set [1] (setting [8]) is 85%. In the data set on CMV, the “protective effect on CMV” value is “protective effect”. For the same compound, the LD50 in data set [2] fell in the range of 20 to 500 mg/kg. In addition, the “incorporation of ^3 H-thymidine” value in data set [3] is 14754 ± 1832 CPM ± SE; in data set [5] (saline 1,730 ± 289), 8,826 ± 535 CPM ± SE. Moreover, the suppressing rate in data set [5] (saline 81%) is given as 4%.
As for `CCCCC[C@H](O)CC(=O)CCc1ccc(O)c(OC)c1` [gingerol], the “acute toxicity LD50” value in data set [6] is on record as “about 250 mg/kg”. In addition, in data set [7] (25 days), the average survival days is recorded as over 24.4 days. For the same compound, in [7] (setting [8]), the survival rate is reported as 90%.
As for `COCC12CCC(OC)C34C5CC6(O)C(O)C5C(O)(C(O)C6OC)C(C(OC)C13)C4N(C)C2` (centres unmarked) [hypaconine], in data set [1] (setting [8]), the responders at 0.001 mg/kg turned out to be 85%. In [1], this compound yielded an average survival days of over 23.1 days. Also, the LD50 in [2] was in the range of 20 to 500 mg/kg. Besides, the “incorporation of ^3 H-thymidine” value in [3] is 14111 ± 2232 CPM ± SE.
In data set [1], `C=C1[C@H]2C[C@@H]3[C@H]4N5C[C@@]6(C)[C@H]7[C@@H]5C[C@]3([C@@H]1O)[C@@](O)(C2)[C@]74C[C@@H](OC(=O)c1ccccc1)[C@@H]6O` [ignavine] displayed an average survival days of over 21.9 days. The compound also had a survival rate in data set [1] (setting [8]) of 75%. Besides, in [3], the “incorporation of ^3 H-thymidine” value is recorded as 12831 ± 2255 CPM ± SE.
Consider `COCC12CN(C)C3C4C(OC)C1C3(C(OC)CC2O)C1CC2(O)C(O)C1C4(O)C(O)C2OC` (centres unmarked) [mesaconine], for which, in [1] (setting [8]), the responders at 0.001 mg/kg came out at 85%. In data set [1], the average survival days was over 23.1 days. Moreover, in data set [2], the LD50 fell in the range of 20 to 500 mg/kg. In addition, the “incorporation of ^3 H-thymidine” value in data set [3] was 15791 ± 2778 CPM ± SE.
Consider `CCN1CC2(COC)CCC(O)C34C5CC6C(OC)CC(O)(C5C6O)C(C(OC)C23)C14` (centres unmarked) [neoline], for which, in data set [1] (setting [8]), the responders at 0.001 mg/kg is 80%. The same compound returned an average survival days in data set [1] of over 22.3 days. Moreover, the LD50 in data set [2] was in the range of 20 to 500 mg/kg. Also, in [3], the “incorporation of ^3 H-thymidine” value is 13744 ± 526 CPM ± SE.

These data come from patent US6030980A, “Agent for the treatment of infections” (priority 1994, dated 2000).
